This is an account of results in ChEMBL document CHEMBL1129422, “Syntheses and structure-activity relationships of the second-generation antitumor taxoids: exceptional activity against drug-resistant cancer cells” (J Med Chem, 1996).

Data set [1] has as its system A2780. Put plainly: Cytotoxicity against A2780-WT, human ovarian carcinoma cell line. In kind it is functional, cell-based.
Data set [2] relates to A2780. Put plainly: Cytotoxicity against A2780-CP3, cisplatin-resistant Ovarian carcinoma cell line. In kind it is functional, cell-based, Homo sapiens.
Data set [3] relates to A2780. Kind of data set: Cytotoxicity against A2780-DX5, Doxorubicin-resistant Ovarian carcinoma cell line. In kind it is functional, cell-based, Homo sapiens.
For data set [4], the system named is MCF7. Kind of data set: Concentration required to inhibit growth of human tumor MCF-7 (breast) cell line. In kind it is functional, cell-based.
The test system of data set [5] is A121. Kind of data set: Concentration required to inhibit growth of human tumor A121 (ovarian) cell line. In kind it is functional, cell-based.
Data set [6] relates to MCF7. Kind of data set: Concentration required to inhibit growth of human tumor […] (breast) cell line. Format: functional, cell-based.
Data set [7] relates to A2780. Put plainly: Cytotoxicity against A2780-C25, oxaliplatin-resistant Ovarian carcinoma cell line. Format: functional, cell-based, Homo sapiens.
The subject of data set [8] is HT-29. Put plainly: Concentration required to inhibit growth of human tumor HT-29 (colon) cell line. In kind it is functional, cell-based.
Data set [9] relates to A549. Put plainly: Concentration required to inhibit growth of human tumor A549 (NSCL) cell line. Format: functional, cell-based.
For data set [10], the system named is Mus musculus. Kind of data set: Tumor growth inhibition of B16 melanoma implanted sc in B6D2F1 mice when 0.4 mL/mouse administered i.v. on day 5 at 20 mg/kg/day. In kind it is functional. To be noted: route intravenous.
In data set [11] the test system is Mus musculus. Kind of data set: Log cell kill = T-C(days)/3.32xTd (Tumor doubling time in days, 1.4 in this assay ) on day 5 at 20 mg/kg/day in B16 melanoma implanted sc in B6D2F1 mice. In kind it is ADME, organism-based. Details: route subcutaneous. The settings on record: in vivo.
Data set [12] has as its system Mus musculus. Kind of data set: Log cell kill = T-C(days)/3.32xTd (Tumor doubling time in days, 1.4 in this assay )on day 9 at 7.7 mg/kg/day in B16 melanoma implanted sc in B6D2F1 mice. Format: ADME, organism-based. Set-up: route subcutaneous. To be noted: in vivo.
Data set [13] has as its system Mus musculus. Kind of data set: Tumor growth delay of B16 melanoma implanted sc in B6D2F1 mice when 0.4 mL/mouse administered i.v. on day 9 at 7.7 mg/kg/day. To be noted: route intravenous. In kind it is functional.
Data set [14] deals with Mus musculus. Put plainly: Tumor growth inhibition of B16 melanoma implanted sc in B6D2F1 mice when 0.4 mL/mouse administered i.v. on day 9 at 7.7 mg/kg/day. In kind it is functional. To be noted: route intravenous.
Data set [15] concerns Mus musculus. Kind of data set: Tumor growth inhibition of B16 melanoma implanted sc in B6D2F1 mice when 0.4 mL/mouse administered i.v. on day 7 at 12.4 mg/kg/day. In kind it is functional. The settings on record: route intravenous.
The subject of data set [16] is Mus musculus. Put plainly: Tumor growth delay of B16 melanoma implanted sc in B6D2F1 mice when 0.4 mL/mouse administered i.v. on day 7 at 12.4 mg/kg/day. In kind it is functional. The settings on record: route intravenous.
In data set [17] the test system is Mus musculus. Put plainly: Log cell kill = T-C(days)/3.32xTd (Tumor doubling time in days, 1.4 in this assay )on day 7 at 12.4 mg/kg/day in B16 melanoma implanted sc in B6D2F1 mice. Format: ADME, organism-based. Set-up: route subcutaneous. The settings on record: in vivo.
In data set [18] the test system is Mus musculus. Kind of data set: Log cell kill = T-C(days)/3.32xTd (Tumor doubling time in days, 1.4 in this assay )on day 7 at 7.7 mg/kg/day in B16 melanoma implanted sc in B6D2F1 mice. In kind it is ADME, organism-based. The settings on record: in vivo. Set-up: route subcutaneous.
Data set [19] deals with Mus musculus. Kind of data set: Tumor growth delay of B16 melanoma implanted sc in B6D2F1 mice when 0.4 mL/mouse administered i.v. on day 9 at 4.8 mg/kg/day. In kind it is functional. To be noted: route intravenous.
Data set [20] concerns Mus musculus. Put plainly: Log cell kill = T-C(days)/3.32xTd (Tumor doubling time in days, 1.4 in this assay )on day 9 at 4.8 mg/kg/day in B16 melanoma implanted sc in B6D2F1 mice. In kind it is ADME, organism-based. Set-up: route subcutaneous. The settings on record: in vivo.
The test system of data set [21] is Mus musculus. Kind of data set: Tumor growth inhibition of B16 melanoma implanted sc in B6D2F1 mice when 0.4 mL/mouse administered i.v. on day 5 at 12.4 mg/kg/day. In kind it is functional. To be noted: route intravenous.
Data set [22] concerns Mus musculus. Put plainly: Tumor growth delay of B16 melanoma implanted sc in B6D2F1 mice when 0.4 mL/mouse administered i.v. on day 7 at 7.7 mg/kg/day. Format: functional. To be noted: route intravenous.
Data set [23] relates to Mus musculus. Put plainly: Tumor growth inhibition of B16 melanoma implanted sc in B6D2F1 mice when 0.4 mL/mouse administered i.v. on day 9 at 4.8 mg/kg/day. To be noted: route intravenous. Format: functional.
The test system of data set [24] is Mus musculus. Put plainly: Tumor growth delay of B16 melanoma implanted sc in B6D2F1 mice when 0.4 mL/mouse administered i.v. on day 5 at 12.4 mg/kg/day. Format: functional. The settings on record: route intravenous.
Data set [25] relates to Mus musculus. Kind of data set: Tumor growth inhibition of B16 melanoma implanted sc in B6D2F1 mice when 0.4 mL/mouse administered i.v. on day 7 at 7.7 mg/kg/day. In kind it is functional. To be noted: route intravenous.
For data set [26], the system named is Mus musculus. Kind of data set: Log cell kill = T-C(days)/3.32xTd (Tumor doubling time in days, 1.4 in this assay ) on day 5 at 12.4 mg/kg/day in B16 melanoma implanted sc in B6D2F1 mice. In kind it is ADME, organism-based. Set-up: route subcutaneous. To be noted: in vivo.

What is called IC50 is the midpoint of a concentration-inhibition curve. Regarding `CC(=O)O[C@H]1C(=O)[C@@]2(C)[C@H]([C@H](OC(=O)c3ccccc3)[C@]3(O)C[C@H](OC(=O)[C@H](O)[C@H](C=C(C)C)NC(=O)OC(C)(C)C)C(C)=C1C3(C)C)[C@]1(OC(C)=O)CO[C@@H]1C[C@@H]2O`, the IC50 in data set [1] (Homo sapiens, A2780) turned out to be 0.4 nM; in [2] (Homo sapiens, A2780), 0.36 nM; in [3] (Homo sapiens, A2780), 5.7 nM; in [4], 0.55 nM; in data set [5], 0.46 nM; in data set [6], 12 nM. Besides, the 50% inhibitory concentration (IC50) stood at 0.3 nM in data set [7] (Homo sapiens, A2780); 0.63 nM in data set [8]; 0.27 nM in data set [9].
By T/C is commonly meant the result in the treated group divided by that in the control group, in per cent. In the case of `CC(=O)O[C@@]12CO[C@@H]1C[C@H](O)[C@@]1(C)C(=O)[C@H](O)C3=C(C)[C@@H](OC(=O)[C@H](O)[C@@H](NC(=O)OC(C)(C)C)c4ccccc4)C[C@@](O)([C@@H](OC(=O)c4ccccc4)[C@H]21)C3(C)C.O.O.O` [DOCETAXEL], the T/C in data set [10] was found to be 0%; in [14], 8%; in [15] it was 7%. Moreover, the IC50 was 1.2 nM in data set [1] (Homo sapiens, A2780); 1.4 nM in data set [2] (Homo sapiens, A2780); 122 nM in [3] (Homo sapiens, A2780); 1 nM in data set [7] (Homo sapiens, A2780). The figures for the “Log 10 cell kill” value in data set [11], in data set [12] and in data set [17] were 3.3, 0.9 and 1.5, respectively. In addition, the T-C was 4.3 days in data set [13] and 7.1 days in data set [16].
Turning to CISPLATIN, the IC50 in [1] (a2780) was found to be 450 nM; in data set [2] (a2780), 9000 nM; in [3] (a2780) it was 280 nM; in [7] (a2780), 1600 nM.
With `CC(=O)O[C@@]12CO[C@@H]1C[C@H](O)[C@@]1(C)C(=O)[C@H](OC(=O)CC(C)(C)C)C3=C(C)[C@@H](OC(=O)[C@H](O)[C@H](C=C(C)C)NC(=O)OC(C)(C)C)C[C@@](O)([C@@H](OC(=O)c4ccccc4)[C@H]21)C3(C)C`, the IC50 in data set [4] stood at 0.4 nM; in [5], 0.34 nM; in [6], 10.5 nM; in data set [8], 0.5 nM; in [9], 0.5 nM.
`CC(=O)O[C@@]12CO[C@@H]1C[C@H](O)[C@@]1(C)C(=O)[C@H](OC(=O)NC(C)C)C3=C(C)[C@@H](OC(=O)[C@H](O)[C@H](C=C(C)C)NC(=O)OC(C)(C)C)C[C@@](O)([C@@H](OC(=O)c4ccccc4)[C@H]21)C3(C)C`: the 50% inhibitory concentration (IC50) in data set [4] came out at 0.46 nM; in data set [5], 0.34 nM; in data set [6] it was 65 nM; in data set [8], 0.52 nM; in data set [9], 0.36 nM.
Taken in the same sequence, the figures for `CCN(CC)C(=O)O[C@H]1C(=O)[C@@]2(C)[C@H]([C@H](OC(=O)c3ccccc3)[C@]3(O)C[C@H](OC(=O)[C@H](O)[C@H](C=C(C)C)NC(=O)OC(C)(C)C)C(C)=C1C3(C)C)[C@]1(OC(C)=O)CO[C@@H]1C[C@@H]2O` were 0.2 nM, 0.17 nM, 9.1 nM, 0.4 nM and 0.2 nM.
As to `COc1cccc2c1C(=O)c1c(O)c3c(c(O)c1C2=O)C[C@@](O)(C(=O)CO)C[C@@H]3O[C@H]1C[C@H](N)[C@H](O)[C@H](C)O1` [DOXORUBICIN], the IC50 in data set [1] (Homo sapiens, A2780) was 5 nM; in data set [2] (Homo sapiens, A2780), 56 nM; in [3] (Homo sapiens, A2780), 357 nM; in data set [7] (Homo sapiens, A2780), 63 nM.
For `CCC(=O)O[C@H]1C(=O)[C@@]2(C)[C@H]([C@H](OC(=O)c3ccccc3)[C@]3(O)C[C@H](OC(=O)[C@H](O)[C@H](C=C(C)C)NC(=O)OC(C)(C)C)C(C)=C1C3(C)C)[C@]1(OC(C)=O)CO[C@@H]1C[C@@H]2O`, the “Log 10 cell kill” value in data set [18] was 2; in data set [20], 0.6; in data set [26] it was 2.3. Moreover, the T-C in data set [19] turned out to be 3 days; in data set [22], 9.3 days; in [24] it was 10.9 days. Further, the T/C in data set [21] was found to be 0%; in data set [23], 34%; in data set [25], 0%. Besides, the IC50 stood at 0.18 nM in data set [4]; 0.12 nM in data set [5]; 2.2 nM in data set [6]; 0.31 nM in data set [8]; 0.29 nM in [9].
